According to patent US20190086391A1, “METHOD AND SYSTEM FOR CONTINUOUS BIOSENSING” (Yissum Research Development Company of the Hebrew …, priority 2016, published 2019):

Test system: HepG2/C3A organoids
Assay: LIVE/DEAD cell viability staining
Assay type: cell-based
Details: 50 μM, 24 hours
Procedure: Unless otherwise noted, cell viability was determined utilizing LIVE/DEAD Cytotoxicity kit (Molecular Probes, Eugene, Oreg.) according to manufacturer's instructions. In brief, cultures were incubated with 2 μM Calcein AM and 3 μM ethidium homodimer-1 for 25 minutes. Hydrolysis by functional intracellular esterases causes live cells to fluoresce green, while the punctured membranes of dead cells permit ethidium homodimer-1 to bind DNA and fluoresce red. Cellular viability was calculated by live to dead ratio and normalized to negative control.

## Cc1c(C)c2c(c(C)c1O)CCC(C)(COc1ccc(CC3SC(=O)NC3=O)cc1)O2 (centres unmarked) [troglitazone]
  cell death (Live/Dead): Less than 5%
  cell viability compared with untreated control: not significantly different from untreated control
